Source: patent US20190330142A1, “INHIBITORS OF MTOR-DEPTOR INTERACTIONS AND METHODS OF USE THEREOF” (The Regents of the University of California, priority 2016, published 2019)
Entries after “also recorded” stand apart in the source; their conditions may differ.

What was measured:
[1] = system: 8226 MM cell line; assay: MTT cytotoxicity assay, 8226 MM cells; conditions: for IC50: 48 h, read-out: MTT (IC50, uM) 8226; for anti-MM cytotoxicity in MTT assay compared to parent B: 48 hr MTT
Description: In mTORC1, mTOR phosphorylates the p70S6 kinase. Thus, a Western blot was used to test for induction of p70 phosphorylation in this secondary screen. Compounds were tested at 0.5, 1, and 2 uM with 6 hrs in vitro exposure. […] A summary of the p70 phosphorylation data from 4 separate experiments where derivatives were used at 0.5 uM, is shown in FIG. 3B. These first 8 derivatives were also screened for cytotoxicity against the same 8226 MM cell line in 48 hr MTT assays.
P70 phosphorylation was measured in 8226 cells treated for 6 hrs. […] The structures and biological activity of all derivatives are shown in Tables 1-4, categorized by structural modification.
The MTT assay was performed by seeding 1-2×10^4 target cells in 0.1 ml of complete media into wells of a 96 well microtiter plate. After incubation with compounds, the reduction of MTT to formazan by live cells was determined with a microplate ELISA reader equipped with a 570 nm filter.
The induction of p70 phosphorylation by derivative compounds was determined by densitometry, comparing immunoblot signals of phosphorylated p70 vs total p70. This ratio was then compared to that resulting from parental compound B, with the latter ratio arbitrarily placed at ‘1’. The IC50 for MTT cytotoxicity was determined using a range of concentrations of derivatives. Percent apoptosis was enumerated by flow cytometry in drug-treated cultures by subtracting control apoptosis determined from DMSO-treated cultures.

[2] = system: MM1.S MM cell line; assay: MTT cytotoxicity assay, MM1.S cells; format: cell-based; conditions: Homo sapiens, 48 hr
Description: The MTT assay was performed by seeding 1-2×10^4 target cells in 0.1 ml of complete media into wells of a 96 well microtiter plate. After incubation with compounds, the reduction of MTT to formazan by live cells was determined with a microplate ELISA reader equipped with a 570 nm filter. Quadruplicate wells were run for each group and the SD of each group was always <5% of the mean.

[3] = system: p70 phosphorylation (mTORC1 activity) in 8226 cells; assay: p70 phosphorylation Western blot (TORC1 activity) in 8226 cells; format: cell-based; conditions: 6 hrs; for p70 phosphorylation vs the parent B / induction of p70 phosphorylation: 8226 cells, 0.5 uM; for p70 phosphorylation vs the parent B: compound B arbitrarily 1; for induction of p70 phosphorylation: compared to compound B; for p70 phosphorylation vs compound B at lower concentrations: as low as 0.25 uM
Description: In mTORC1, mTOR phosphorylates the p70S6 kinase.
(§1) The 8226 and MM1.S myeloma cell lines were purchased from ATCC. The cell lines were characterized by FISH analysis and shown to contain MAF/Ig translocations. Western blot confirmed a significant over-expression of DEPTOR protein. Both lines were tested for mycoplasma within the last 6 months and were negative. Western blot assay—Protein was extracted and separated by 12.5% SDS-PAGE as previously described (see new ref below). Proteins were transferred to polyvinylidene difluoride membranes and their expression was detected utilizing specific antibodies purchased from Cell Signaling (Beverly, Mass.).

[4] = system: p21 expression; assay: p21 expression immunoblot; format: cell-based
Description: (§2) These were then studied in more detail. […] This was clearly shown for 4d, 4e, 4 g, and 3 g.
as §1

[5] = system: 8226 cells; assay: apoptosis assay (activated caspase 3, flow cytometry) in 8226 cells; format: cell-based; conditions: 48 hrs
Description: as §2
To identify apoptotic cells, a phycoerythrin (PE)-conjugated antibody specific for activated caspase 3 (BD Biosciences) was used. For staining, 10^6 cells were washed with PB S and fixed and permeabilized with 0.5 ml cytofix/cytoperm solution. The cells were then incubated with a 1:5 dilution of PE-conjugated monoclonal anti-caspase 3 antibody for 30 mins and analyzed by flow cytometry.

| Compound | IC50 [1] [µM] | anti-MM cytotoxicity in MTT assay compared to parent B [1] | IC50 [2] [µM] | p70 phosphorylation vs the parent B [3] | induction of p70 phosphorylation [3] | p21 expression compared to parent compound B [4] | p70 phosphorylation vs compound B at lower concentrations [3] | apoptosis activity compared to parent compound B [5] |
| --- | --- | --- | --- | --- | --- | --- | --- | --- |
| Fc1cccc(NN=C2C(Cl)=C(Cl)C(Cl)=C2Cl)c1 [3e, 1-(3-Fluorophenyl)-2-(perchlorocyclopenta-2,4-dien-1-ylidene)hydrazine] | 0.5 | lower IC50s; also recorded: enhanced cytotoxic effects | 1.5 |  |  |  |  |  |
| CN(C)N=C1C(Cl)=C(Cl)C(Cl)=C1Cl [compound 3a, 1,1-Dimethyl-2-(perchlorocyclopenta-2,4-dien-1-ylidene)hydrazine] | > 3 |  | > 3 | no increase |  |  |  |  |
| ClC1=C(Cl)C(Cl)=C(Cl)C1=NNc1cc(Cl)cc(Cl)c1 [3f, 1-(3,5-dichlorophenyl)-2-(perchlorocyclopenta-2,4-dien-1-ylidene)hydrazine] | 0.8 | lower IC50s; also recorded: enhanced cytotoxic effects | 2 |  |  |  |  |  |
| Cc1ccc(C(=O)N(N=C2C(Cl)=C(Cl)C(Cl)=C2Cl)C(=O)c2ccc(C)cc2)cc1 [4f, 4-Methyl-N-(4-methylbenzoyl)-N′-(perchlorocyclopenta-2,4-dien-1-ylidene)benzohydrazide] | 0.5 | enhanced cytotoxic effects | 0.5 |  |  |  |  |  |
| Fc1ccccc1NN=C1C(Cl)=C(Cl)C(Cl)=C1Cl [3j, 1-(2-Fluorophenyl)-2-(perchlorocyclopenta-2,4-dien-1-ylidene)hydrazine] | > 3 |  | > 3 | no increase | no activity |  |  |  |
| NN=C1c2ccccc2-c2ccccc21 [6a, (9H-Fluoren-9-ylidene)hydrazine] | > 5 | did not show any improvement |  | no increase | did not show any improvement |  |  |  |
| Cc1cccc(NN=C2C(Cl)=C(Cl)C(Cl)=C2Cl)c1 [3h, 1-(Perchlorocyclopenta-2,4-dien-1-ylidene)-2-(m-tolyl)hydrazine] | 2 |  | > 3 | no increase |  |  |  |  |
| CC(C)(C)OC(=O)NN=C1c2ccccc2-c2ccccc21 [6e, tert-Butyl 2-(9H-fluoren-9-ylidene)hydrazine-1-carboxylate] | > 5 | did not show any activity | > 5 | no increase | did not show any activity |  |  |  |
| ClC1=C(Cl)C(Cl)=C(Cl)C1=NN(c1ccccc1)c1ccccc1 [3l, 2-(Perchlorocyclopenta-2,4-dien-1-ylidene)-1,1-diphenylhydrazine] | > 3 |  | > 3 | no increase |  |  |  |  |
| CC(C)(C)C(=O)NN=C1C(Cl)=C(Cl)C(Cl)=C1Cl [4d, N′-(Perchlorocyclopenta-2,4-dien-1-ylidene)pivalohydrazide] | 0.12 | enhanced cytotoxic effects | 2 |  |  | enhanced p21 expression | significantly more effective | enhanced compared to parent compound B |
| O=C(c1ccc(F)cc1)N(N=C1C(Cl)=C(Cl)C(Cl)=C1Cl)C(=O)c1ccc(F)cc1 [compound 4e, 4-Fluoro-N-(4-fluorobenzoyl)-N′-(perchlorocyclopenta-2,4-dien-1-ylidene)benzohydrazide] | 0.25 | enhanced cytotoxic effects | 0.3 |  |  | enhanced p21 expression | significantly more effective | enhanced compared to parent compound B |
| C#CCOC(=O)NN=C1C(Cl)=C(Cl)C(Cl)=C1Cl [compound 4h, Prop-2-yn-1-yl 2-(perchlorocyclopenta-2,4-dien-1-ylidene)hydrazine-1-carboxylate] | 0.8 | some cytotoxicity; also recorded: enhanced cytotoxic effects |  |  | minimal increase |  |  |  |
